{"source": "patent US20070270350A1", "about": "“Methods and Compositions for the Prevention and Treatment of Inflammatory Diseases or Conditions” (MUSC FOUNDATION FOR RESEARCH DEVELOPMENT, priority 2003, published 2007)", "key": {"small GTPase Ras": {"system": "small GTPase Ras", "assay": "Quantification of Ras activation (GST-Raf-1 Ras binding domain)", "type": "cell-based, rat", "conditions": "D-PDMP 50 μM pretreatment; LPS/IFN 5 mins", "method": "Quantification of Ras Activation. After stimulation, primary astrocytes in 6 well plates were washed with PBS and lysed in membrane lysis buffer (MLB; 0.5 ml of 25 mM HEPES, pH7.5, 150 mM NaCl, 1% Igepal CA-630, 0.25% sodium deoxycholate, 10% glycerol, 10 mM MgCl2, 1 mM EDTA, 25 mM NaF, 1 mM of sodium orthovanadate, and EDTA free Complete™ protease inhibitor cocktail). After centrifugation (5,000×g) at 4° C. for 5 min, supernatant was used for Ras activation assay. One hundred μg of supernatant was used for binding with agarose conjugated Ras-binding domain (RBD) of Raf-1 which was expressed in BL21 (Invitrogen) Escherichia coli strain transformed by pGEX-2T-GST-RBD in the presence of 0.1 mM of IPTG as described previously (Herrmann et al., 1995). The binding reaction was performed at 4° C. for 30 min in MLB. Following washing with MLB three times, Ras-RBD complex were denatured by adding of 2×SDS sample buffer. Ras protein was identified by western immunoblot analysis with Ras antibodies from Upstate Biotechnology."}, "ERK1/2": {"system": "ERK1/2", "assay": "ERK1/2 phosphorylation by immunoblot after LPS/IFN", "type": "cell-based, rat", "conditions": "D-PDMP pretreatment; LPS/IFN 20 minutes", "method": "(§1) Western Blot Analysis. For iNOS protein, the cells were washed with cold Tris buffered saline (TBS; 20 mM Trizma base, and 137 mM NaCl, pH 7.5), lysed in 1×SDS sample loading buffer (62.5 mM Trizma base, 2% w/v SDS, 10% glycerol), following sonication and centrifugation at 1,5000×g for 5 min, the supernatant was used for the iNOS western immunoblot assay. The protein concentration of samples was determined with the detergent compatible protein assay reagent (Bio-Rad Laboratories, CA) using bovine serum albumin (BSA) as the standard. Sample was boiled for 3 min with 0.1 volumes of 10% O-mercaptoethanol and 0.5% bromophenol blue mix. Fifty μg of total cellular protein was resolved by electrophoresis in 8 or 12% polyacrylamide gels, electro-transferred to polyvinylidene difluoride (PVDF) filter and blocked with Tween 20 containing Tris-buffered saline [TBST; 10 mM Trizma base (pH 7.4), 1% Tween 20, and 150 mM NaCl] with 5% skim milk. After incubation with antiserum against iNOS (BD PharMingen, CA), or hRas (Upstate Biotechnology, CA), or phospho-specific MAPK (p42/44) (Signal Transduction), in PVDF buffer for 2 h at room temperature, the filters were washed 3 times with TBST buffer and then incubated with horseradish peroxidase conjugated anti-rabbit or mouse IgG for 1 h. The membranes were autoradiographed by using ECL-plus (Amersham Pharmacia Biotech) after washing with TBST buffer."}, "NF-κB": {"system": "NF-κB", "assay": "NF-κB reporter, gel shift and IκB phosphorylation after LPS/IFN", "type": "cell-based, rat", "method": "as §1\nNuclear Extraction and Electrophoretic mobility shift assay. Nuclear extracts from cells (1×10^7 cells) were prepared using previously published method (Dignam et al., 1983) with slight modification. Cells were harvested, washed twice with ice-cold TBS, and lysed in 400 μl of buffer A containing, 10 mM KCl, 2 mM MgCl2, 0.5 mM dithiothreitol, protease inhibitor cocktail (Sigma), and 0.1% Nonidet P40 in 10 mM HEPES, pH 7.9 for 10 min on ice. Following centrifugation at 5,000×g for 10 min, the pelleted nuclei were washed with buffer A without Nonidet P40, and re-suspended in 40 μl of buffer B containing 25% (v/v) glycerol, 0.42 M NaCl, 1.5 mM MgCl2, 0.2 mM EDTA, 0.5 mM dithiothreitol, and Complete™ protease inhibitor cocktail (Roche) in 20 mM HEPES, pH7.9 for 30 min on ice. The lysates were centrifuged at 15,000×g for 15 min and the supernatants containing the nuclear proteins were stored at −70° C. until use. Ten μg of nuclear proteins was used for the electrophoretic mobility shift assay for detection of AP-1, NFκB, and C/EBP DNA binding activities. DNA-protein binding reactions were carried out at room temperature for 20 min in 10 mM Trizma base (pH 7.9), 50 mM NaCl, 5 mM MgCl2, 1 mM EDTA, 1 mM dithiothreitol, 1 μg poly (dl-dC), 5% (v/v) glycerol, and approximately 0.3 pmol of NFκB (Santa Cruz Biotech) labeled with DIG-ddUTP using terminal deoxynucleotidyl transferase (Roche). Protein-DNA complexes were resolved from protein-free DNA in 5% polyacrylamide gels at room temperature in 50 mM Tris, pH 8.3, 0.38 M glycine, and 2 mM EDTA, and electroblotted onto positively charged nylon membranes. The chemiluminescence detection method for DIG-labeled probes is identical to the method described for the non-isotopic northern blot analysis in the preceding.\nTransient Transfections and Reporter Gene Assay. 3×10^5 cells/well were cultured in 6-well plates for one day before the transfection. Transfection was performed with plasmid concentration constant (2.5 μg/transfection) and 8 μl of Fugene transfection reagent (Roche Molecular Biochemicals). One day after transfection, the cells were placed in serum free media for overnight. Following appropriate treatment, the cells were washed with phosphate buffered saline (PBS), scrapped, and then resuspended with 100 μl of lysis buffer (40 mM of Tricine pH 7.8, 50 mM of NaCl, 2 mM of EDTA, 1 mM of MgSO4, 5 mM of dithiothreitol, and 1% of Triton X-100). After incubation in room temperature for 15 min with occasional vortexing, the samples were centrifuged. […]"}, "SCI rats": {"system": "SCI rats", "type": "in vivo"}, "[1]": {"conditions": "cited from earlier work"}, "[2]": {"conditions": "D-PDMP 20 mg/kg, 24 hrs following injury"}}, "note": "“Also recorded” adds a separate entry of the source."}
{"smiles": "CCCCCCCCCC(=O)NC(CN1CCOCC1)C(O)c1ccccc1.Cl", "note": "[D-PDMP, D-threo-1-Phenyl-2-decanoylamino-3-morpholino-1-propanol HCl]", "values": [{"measurement": "LPS/IFN mediated activation of Ras", "setting": "small GTPase Ras", "result": "reduced"}, {"measurement": "LPS/IFN induced phosphorylation of ERK 1/2", "setting": "ERK1/2", "result": "inhibited"}, {"measurement": "LPS/IFN induced luciferase activity (κB-repeat luciferase)", "setting": "NF-κB; D-PDMP 0.5 hr before LPS/IFN", "result": "abolished"}, {"measurement": "phosphorylation of IκB", "setting": "NF-κB; in the presence of D-PDMP", "result": "Decreased"}, {"measurement": "NF-κB DNA binding activity (electrophoresis mobility shift assay)", "setting": "NF-κB; increasing doses of D-PDMP, LPS/IFN 45 minutes", "result": "inhibited"}, {"measurement": "iNOS mRNA and protein expression at the site of injury", "setting": "SCI rats; D-PDMP 20 mg/Kg i.p. within 10 minutes following SCI, 12 hrs", "result": "markedly suppresses; also recorded: significantly lower"}, {"measurement": "GFAP expression (immunofluorescence, lesion epicenter)", "setting": "SCI rats; [2]", "result": "significantly reduced"}, {"measurement": "iNOS expression (immunofluorescence, lesion epicenter)", "setting": "SCI rats; [2]", "result": "significantly reduced"}, {"measurement": "SCI induced white matter vacuolization and tissue necrosis (H&E)", "setting": "SCI rats; D-PDMP treated SCI rats", "result": "inhibited"}, {"measurement": "apoptosis of neurons and other cells (TUNEL/NeuN)", "setting": "SCI rats; D-PDMP treated SCI rats", "result": "protection against apoptosis"}, {"measurement": "demyelinization (LFB staining)", "setting": "SCI rats; D-PDMP treated SCI rats", "result": "attenuated"}, {"measurement": "adverse effect on neuronal survival", "setting": "SCI rats; D-PDMP treated sham operated animals", "result": "no adverse effect"}, {"measurement": "solubility in water", "setting": "[1]", "result": "soluble"}]}
